# Assay results taken from ChEMBL document CHEMBL4732194, “Indolyl-α-keto-1,3,4-oxadiazoles: Synthesis, anti-cell proliferation activity, and inhibition of tubulin polymerization” (Bioorg Med Chem Lett, 2021).
# The source made the active and inactive calls. No cut-off for these calls is given here.
# Key:
# Jurkat [1] = assay: Antiproliferative activity against human Jurkat cells assessed as cell survival at 10 uM (reference value: 104.3 +/ 10.2 %); type: functional; conditions: read-out: Activity
# U-937 [2] = assay: Antiproliferative activity against human U-937 cells assessed as cell survival at 10 uM (reference value: 100 +/ 8.7 %); type: functional; conditions: read-out: Activity
# [3] = Antiproliferative activity against human SMS-SB cells assessed as cell survival at 10 uM (reference value: 100 +/ 6 %); type: functional; conditions: read-out: Activity
# BT-474 [4] = assay: Antiproliferative activity against human BT-474 cells assessed as cell survival at 10 uM (reference value: 100 +/ 6.3 %); type: functional; conditions: read-out: Activity
# Jurkat [5] = assay: Induction of apoptotic cell death in human Jurkat cells assessed as activation of caspase 3/7 by fluorescence assay relative to control; type: functional
# [6] = Inhibition of porcine brain tubulin polymerization assessed as disruption of microtubule assembly measured after 1.5 hrs in presence of GTP by fluorescence based analysis; type: tissue-based, Sus scrofa
# MCF7 = assay: Antiproliferative activity against estrogen-sensitive human MCF7 cells assessed as cell growth inhibition measured after 4 days by crystal violet staining based assay; type: functional; conditions: MCF7, 96 h
# [7] = Inhibition of calf brain tubulin polymerization assessed as disruption of microtubule assembly measured after 20 mins in presence of GTP by turbidometric analysis; type: tissue-based, Bos taurus
# U-937 [8] = assay: Antiproliferative activity against human U-937 cells assessed as inhibition of cell proliferation; type: functional, cell-based
# [9] = Antiproliferative activity against human SMS-SB cells assessed as inhibition of cell proliferation; type: functional, cell-based
# Jurkat [10] = assay: Antiproliferative activity against human Jurkat cells assessed as inhibition of cell proliferation; type: functional, cell-based
# Jurkat [11] = assay: Cytotoxicity against human Jurkat cells assessed as cell membrane damage by LDH assay; type: functional, cell-based
# BT-474 [12] = assay: Antiproliferative activity against human BT-474 cells assessed as inhibition of cell proliferation; type: functional, cell-based
# Tubulin = assay: (§1) Inhibition of tubulin polymerization (unknown origin) assessed as inhibition of microtubule formation; type: protein-complex assay, Homo sapiens
# Tubulin (Homo sapiens) = Tubulin (Homo sapiens) (UniProt P68371+Q9H4B7+P0DPH7+P68366+Q13509+Q71U36+P04350+Q3ZCM7+P07437+P68363+Q9BQE3+Q6PEY2+Q13885+Q9BVA1+Q9BUF5); assay: as §1; type: protein-complex assay
# Jurkat [13] = assay: Induction of apoptotic cell death in human Jurkat cells assessed as activation of caspase 3/7 at 3 uM by fluorescence assay relative to control; type: functional
Structure (SMILES),viability at 10 µM (Jurkat [1]),viability at 10 µM (U-937 [2]),viability at 10 µM [3],viability at 10 µM (BT-474 [4]),other results
COc1cc(C(=O)c2nnc(-c3cc4ccccc4[nH]3)o2)cc(OC)c1OC,44.9%,91.2%,35.7%,111%,–
O=C(Nc1ccncc1)C(=O)c1cn(Cc2ccc(Cl)cc2)c2ccccc12 [INDIBULIN],31.6%,27.1%,32.9%,40.9%,–
COc1ccc(C(=O)c2nnc(-c3cc4ccccc4[nH]3)o2)cc1,75.1%,84.1%,79.9%,56.1%,–
COc1ccc(C(=O)c2nnc(-c3c[nH]c4ccccc34)o2)cc1OC,92.5%,90.3%,93.5%,70.2%,–
COc1ccc2[nH]cc(-c3nnc(C(=O)c4cc(OC)c(OC)c(OC)c4)o3)c2c1,88.9%,85.5%,74.3%,54%,–
COc1cc(C(=O)c2nnc(-c3cn(Cc4ccc(Cl)cc4)c4ccccc34)o2)cc(OC)c1OC,80.6%,86%,96.2%,68.5%,–
COc1cccc2c1C(=O)c1c(O)c3c(c(O)c1C2=O)C[C@@](O)(C(=O)CO)C[C@@H]3O[C@H]1C[C@H](N)[C@H](O)[C@H](C)O1 [DOXORUBICIN],30.1%,22.9%,15.1%,31.8%,fold change (FC) (Jurkat [5]): 8
O=C(c1ccccc1)c1nnc(-c2c[nH]c3ccccc23)o1,82.1%,98.7%,87.6%,59.3%,–
COc1cc(/C=C/c2nnc(-c3cc(-c4ccc(Cl)cc4)n[nH]3)o2)cc(OC)c1OC,–,–,–,–,IC50 [6]: 1300 nM
O=C(c1ccccc1)c1nnc(-c2cn(Cc3ccc(Cl)cc3)c3ccccc23)o1,82%,85%,87.9%,68.9%,–
COc1ccc(-c2[nH]c3cc(OC)ccc3c2C=O)cc1,–,–,–,–,IC50 (MCF7): 35 nM; IC50 [7]: 1500 nM
COc1cc(C(=O)c2nnc(-c3c[nH]c4ccccc34)o2)cc(OC)c1OC,35.2%,27.5%,11.6%,41.1%,IC50 (U-937 [8]): 7100 nM; IC50 [9]: 800 nM; IC50 (Jurkat [10]): 3100 nM; Activity (Jurkat [11]): inactive; IC50 (BT-474 [12]): 4100 nM; IC50 (Tubulin): 10700 nM; inhibition (Tubulin (Homo sapiens)): Dose-dependent effect; fold change (FC) (Jurkat [13]): 9
COc1ccc(C(=O)c2nnc(-c3c[nH]c4ccccc34)o2)cc1,99.6%,108%,96.2%,88.4%,–
COc1cc(C(=O)c2nnc(-c3c[nH]c4ccc(Br)cc34)o2)cc(OC)c1OC,77.4%,92.1%,70.9%,56.8%,–
Cc1ccc(C(=O)c2nnc(-c3c[nH]c4ccccc34)o2)cc1,78.9%,102%,66.8%,67.9%,–
COc1ccc(C(=O)c2nnc(-c3c[nH]c4ccc(Br)cc34)o2)cc1,88.8%,105%,94.8%,65.8%,–
COc1ccc(C(=O)c2nnc(-c3c[nH]c4ccc(OC)cc34)o2)cc1,99.9%,98.7%,70.7%,70.3%,–
COc1ccc(C(=O)c2nnc(-c3c[nH]c4cc(F)ccc34)o2)cc1,86.4%,108%,101%,72.6%,–
COc1ccc(C(=O)c2nnc(-c3cc4ccccc4[nH]3)o2)cc1OC,67.4%,75.2%,76.1%,67.4%,–
O=C(c1ccc(F)cc1)c1nnc(-c2c[nH]c3ccccc23)o1,90.9%,95.3%,76.8%,62.3%,–
